According to ChEMBL document CHEMBL1201862, “PubChem BioAssay data set” (2004):
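In this assay, cells in 96-well plates receive the compound at five concentrations for 48 hours. Endpoints are linearly interpolated between the surrounding concentrations. Here, GI50 denotes the concentration required for 50% inhibition of growth.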 Active and inactive are the calls of the source. Rule as the data show it: active = GI50 up to about 1.1 µM and inactive = higher.

Key:
Experiment in all cases: NCI anticancer screen, dose series, 48 h
PC-3 = tested on: PC-3
HOP-92 = tested on: HOP-92
OVCAR-4 = tested on: OVCAR-4
MDA-MB-231 = tested on: MDA-MB-231
SK-MEL-2 = tested on: SK-MEL-2
MCF7 = tested on: MCF7
SF-295 = tested on: SF-295
UACC-62 = tested on: UACC-62
A549 = tested on: A549
MDA-MB-435 = tested on: MDA-MB-435
NCI-H23 = tested on: NCI-H23
NCI-H226 = tested on: NCI-H226
HOP-62 = tested on: HOP-62
SN12C = tested on: SN12C
SK-OV-3 = tested on: SK-OV-3
MDA-N = tested on: MDA-N
OVCAR-8 = tested on: OVCAR-8
HCT-15 = tested on: HCT-15
BT-549 = tested on: BT-549
KM12 = tested on: KM12

Row | Compound | GI50 (PC-3) | GI50 (HOP-92) | GI50 (OVCAR-4) | GI50 (MDA-MB-231) | GI50 (SK-MEL-2) | GI50 (MCF7) | GI50 (SF-295) | GI50 (UACC-62) | GI50 (A549) | GI50 (MDA-MB-435) | GI50 (NCI-H23) | GI50 (NCI-H226) | GI50 (HOP-62) | GI50 (SN12C) | GI50 (SK-OV-3) | GI50 (MDA-N) | GI50 (OVCAR-8) | GI50 (HCT-15) [µM] | GI50 (BT-549) | GI50 (KM12)
1 | Cc1cc(C)c(S(=O)(=O)N(CCCN)OCCCON(CCCN)S(=O)(=O)c2c(C)cc(C)cc2C)c(C)c1 | 1.82 µM (inactive) | 1.98 µM (inactive) | 2.29 µM (inactive) | 1.77 µM (inactive) | 1.79 µM (inactive) | 1.82 µM (inactive) | 7.66 µM (inactive) | 2.52 µM (inactive) | 1.77 µM (inactive) | 2.03 µM (inactive) | 2.18 µM (inactive) | 2.2 µM (inactive) | 1.91 µM (inactive) | 3.91 µM (inactive) | 1.82 µM (inactive) | 1.78 µM (inactive) | 3.68 µM (inactive) | 18.2 | 3.1 µM (inactive) | 1.9 µM (inactive)
2 | COc1cccc2c1-c1nc(N)c3c(OC)cccc3c1C2=O | > 100 µM (inactive) | > 100 µM (inactive) | 62.8 µM (inactive) | 19.1 µM (inactive) | > 100 µM (inactive) | > 100 µM (inactive) | > 100 µM (inactive) | > 100 µM (inactive) | > 100 µM (inactive) | > 100 µM (inactive) | 24.9 µM (inactive) | 48.3 µM (inactive) | 22.8 µM (inactive) | 95.1 µM (inactive) | > 100 µM (inactive) | > 100 µM (inactive) | 85.5 µM (inactive) | 28.9 | > 100 µM (inactive) | 16.1 µM (inactive)
3 | N=C(N)/N=C(\N)Nc1ccc(C(=O)O)cc1 | > 100 µM (inactive) | > 100 µM (inactive) | > 100 µM (inactive) | > 100 µM (inactive) | > 100 µM (inactive) | > 100 µM (inactive) | > 100 µM (inactive) | > 100 µM (inactive) | > 100 µM (inactive) | > 100 µM (inactive) | > 100 µM (inactive) | > 100 µM (inactive) | > 100 µM (inactive) | 43.1 µM (inactive) | > 100 µM (inactive) | > 100 µM (inactive) | > 100 µM (inactive) | > 100 | > 100 µM (inactive) | > 100 µM (inactive)
4 | O=C1CSC(c2ccccc2)N1c1ccc(-n2c(-c3ccccc3)nc3ccccc3c2=O)cc1 (stereo not given) | 33.9 µM (inactive) | > 61.1 µM (inactive) | 42 µM (inactive) | 47.2 µM (inactive) | > 100 µM (inactive) | > 92 µM (inactive) | 63.2 µM (inactive) | 33.3 µM (inactive) | > 74.6 µM (inactive) | 63.4 µM (inactive) | > 71.3 µM (inactive) | > 77.3 µM (inactive) | > 100 µM (inactive) | 99.3 µM (inactive) | > 100 µM (inactive) | > 79.1 µM (inactive) | 61.7 µM (inactive) | 46.9 | > 80.7 µM (inactive) | 41.1 µM (inactive)
5 | CCC1(C)NC(c2cnccn2)=NN1c1ccc(Cl)cc1 (stereo not given) | 65.9 µM (inactive) | > 100 µM (inactive) | 63.2 µM (inactive) | > 100 µM (inactive) | > 100 µM (inactive) | 45.4 µM (inactive) | > 100 µM (inactive) | > 100 µM (inactive) | > 100 µM (inactive) | > 100 µM (inactive) | > 100 µM (inactive) | > 100 µM (inactive) | > 100 µM (inactive) | 29 µM (inactive) | > 100 µM (inactive) | > 100 µM (inactive) | > 100 µM (inactive) | > 100 | > 100 µM (inactive) | > 100 µM (inactive)
6 | CCOC(=O)CCN1C(=O)c2ccc(NC(=O)C(=O)O)cc2S1(=O)=O | > 100 µM (inactive) | > 100 µM (inactive) | > 100 µM (inactive) | > 100 µM (inactive) | > 100 µM (inactive) | > 100 µM (inactive) | > 100 µM (inactive) | > 100 µM (inactive) | > 100 µM (inactive) | > 100 µM (inactive) | > 100 µM (inactive) | > 100 µM (inactive) | > 100 µM (inactive) | > 100 µM (inactive) | > 100 µM (inactive) | > 100 µM (inactive) | > 100 µM (inactive) | > 100 | > 100 µM (inactive) | > 100 µM (inactive)
7 | O=Cc1c(-c2ccccc2)nc2ccccc2c1O | 36.5 µM (inactive) | > 100 µM (inactive) | > 100 µM (inactive) | 64.6 µM (inactive) | > 100 µM (inactive) | 39.3 µM (inactive) | 97.9 µM (inactive) | 55.8 µM (inactive) | 54 µM (inactive) | 21.3 µM (inactive) | 75.7 µM (inactive) | > 100 µM (inactive) | 92.7 µM (inactive) | 73.8 µM (inactive) | > 100 µM (inactive) | 15.6 µM (inactive) | 97.5 µM (inactive) | 65.2 | > 100 µM (inactive) | 30.3 µM (inactive)
8 | O=c1c(Br)c(-c2ccccc2)[s+]([O-])c2ccccc12 (stereo not given) | 7.78 µM (inactive) | 10.5 µM (inactive) | 1.59 µM (inactive) | 14.8 µM (inactive) | 18.4 µM (inactive) | 2.96 µM (inactive) | 17.9 µM (inactive) | 13.7 µM (inactive) | 24.2 µM (inactive) | 4.5 µM (inactive) | 16 µM (inactive) | 15.8 µM (inactive) | 2.43 µM (inactive) | 15.6 µM (inactive) | 17.7 µM (inactive) | 6 µM (inactive) | 4.6 µM (inactive) | 3.32 | 17.9 µM (inactive) | 15.8 µM (inactive)
9 | Oc1ccc(Cc2cc(Cl)cc(Cl)c2O)cc1Cl | 17.7 µM (inactive) | 18.2 µM (inactive) | 23.3 µM (inactive) | 18.6 µM (inactive) | 15.5 µM (inactive) | 18.1 µM (inactive) | 19 µM (inactive) | 14.7 µM (inactive) | 19.1 µM (inactive) | 8.83 µM (inactive) | 16.3 µM (inactive) | 21.1 µM (inactive) | 19.2 µM (inactive) | 15.1 µM (inactive) | 27.1 µM (inactive) | 8.93 µM (inactive) | 19 µM (inactive) | 16.9 | 18.8 µM (inactive) | 20 µM (inactive)
10 | COc1cccc2c3ccccc3c3nc[nH]c3c12 | 30.8 µM (inactive) | 27.3 µM (inactive) | > 88.7 µM (inactive) | 25.4 µM (inactive) | 58.3 µM (inactive) | 47.4 µM (inactive) | 16 µM (inactive) | 22.8 µM (inactive) | 36.2 µM (inactive) | 31.6 µM (inactive) | > 100 µM (inactive) | 37.8 µM (inactive) | 54.3 µM (inactive) | > 66.5 µM (inactive) | > 62.1 µM (inactive) | 32.1 µM (inactive) | > 100 µM (inactive) | 27.7 | > 71.1 µM (inactive) | 18.7 µM (inactive)
11 | O=C(/C=C/c1ccc(-c2ccccc2)cc1)NCc1ccc(C(=O)NCc2ccccc2)cc1 | > 100 µM (inactive) | > 100 µM (inactive) | > 100 µM (inactive) | > 100 µM (inactive) | > 100 µM (inactive) | > 100 µM (inactive) | > 100 µM (inactive) | > 100 µM (inactive) | > 100 µM (inactive) | > 100 µM (inactive) | 90.2 µM (inactive) | > 100 µM (inactive) | 57.1 µM (inactive) | > 100 µM (inactive) | > 100 µM (inactive) | > 100 µM (inactive) | > 100 µM (inactive) | > 100 | > 100 µM (inactive) | > 100 µM (inactive)
12 | C1CNCCN2CCCNCCN(C1)CC2 | > 100 µM (inactive) | > 100 µM (inactive) | > 100 µM (inactive) | > 100 µM (inactive) | > 100 µM (inactive) | > 100 µM (inactive) | > 100 µM (inactive) | > 100 µM (inactive) | > 100 µM (inactive) | > 100 µM (inactive) | > 100 µM (inactive) | > 100 µM (inactive) | > 100 µM (inactive) | > 100 µM (inactive) | > 100 µM (inactive) | > 100 µM (inactive) | > 100 µM (inactive) | > 100 | > 100 µM (inactive) | > 100 µM (inactive)
13 | OCC1CCCCN1Cc1nc2cc(Cl)ccc2[nH]1 (stereo not given) | 55.2 µM (inactive) | > 100 µM (inactive) | > 100 µM (inactive) | > 100 µM (inactive) | > 100 µM (inactive) | > 100 µM (inactive) | > 100 µM (inactive) | > 100 µM (inactive) | > 100 µM (inactive) | > 100 µM (inactive) | > 100 µM (inactive) | 95.5 µM (inactive) | > 100 µM (inactive) | > 100 µM (inactive) | > 100 µM (inactive) | > 100 µM (inactive) | > 100 µM (inactive) | > 100 | > 100 µM (inactive) | > 100 µM (inactive)
14 | Cc1cn(C2CC(N=[N+]=[N-])C(CO)O2)c(=O)n(CCCCBr)c1=O (stereo not given) | 26.3 µM (inactive) | > 100 µM (inactive) | > 100 µM (inactive) | 35.6 µM (inactive) | 61 µM (inactive) | 60.5 µM (inactive) | > 100 µM (inactive) | > 100 µM (inactive) | > 100 µM (inactive) | 80.4 µM (inactive) | 96.8 µM (inactive) | > 100 µM (inactive) | > 100 µM (inactive) | 59.3 µM (inactive) | > 100 µM (inactive) | > 100 µM (inactive) | > 100 µM (inactive) | > 100 | > 100 µM (inactive) | > 100 µM (inactive)
